Measured values: patent publication US9642808B2, “Extended release compositions comprising mycophenolate sodium and processes thereof” (PANACEA BIOTECH LIMITED, priority 2007, dated 2017)
Read-outs that look alike come from different tables or passages of the source.

Experiments:
[1] = pH-dependent solubility of the drug; assay type: physicochemical
Excerpt: The present invention provides a stable extended release single unit dosage form composition such as matrix tablets which could provide substantially linear drug release for a prolonged duration of time during the transit through varying pHs of the GIT.
The prior art formulation approaches lead to a pharmaceutical composition which has a suitable fast disintegration time but not necessarily a suitable dissolution rate of the active agent under acidic conditions, i.e. a multiparticulate composition in the form of a tablet with an extragranularly added disintegrant will rapidly disintegrate into granules but the dissolution of the drug substance from the composition and/or the disintegrated composition under acidic conditions may be unsuitable and, low due to the solubility properties of the active agent itself. The availability of an active agent with respect to absorption, i.e. entrance into the circulatory system, is dependant on the presence of the active agent in dissolved form as it is generally accepted that only dissolved substances are capable of passing the mucous membranes in the gastro-intestinal tract. Therefore, it is important that the dissolution of the active agent is suitably fast even under acidic conditions in order to enable absorption from the stomach so that the absorption of the active agent is continuous throughout the GIT, and the bioavailability is not compromised.

[2] = 423 de novo kidney allograft recipients; cited from earlier work
[3] = cited from earlier work
[4] = controlled de novo and maintenance renal studies

Compound | solubility ([1]; pH above 6.0) | solubility ([1]; pH below 6.0) | solubility in an acidic medium ([1]; pH of from about 1 to about 3) | incidence of GI adverse events [2] [%] | Adverse Events (%): Anemia [3, 4] [%] | Adverse Events (%): Constipation [3, 4] [%] | Adverse Events (%): Diarrhoea [3, 4] [%] | Adverse Events (%): Dyspepsia [3, 4] [%] | Adverse Events (%): Insomnia [3, 4] [%] | Adverse Events (%): Leukopenia [3, 4] [%] | Adverse Events (%): Nausea [3, 4] [%] | Adverse Events (%): Urinary Tract Infection [3, 4] [%] | Adverse Events (%): Vomiting [3, 4] [%] | Adverse Events (%): CMV infections ([3]; in vivo) [%] | Adverse Events (%): CMV infections [3, 4] [%]
COc1c(C)c2c(c(O)c1C/C=C(\C)CCC(=O)O)C(=O)OC2 [MPS, mycophenolate sodium] | high solubility | poor solubility | substantially low solubility | 79.8 | 21.9 | 39.5 | 23.5 | 19 | 23.8 | 20.5 | 27.1 | 33.3 | 23 | 18.1 | 
COc1c(C)c2c(c(O)c1C/C=C(\C)CCC(=O)OCCN1CCOCC1)C(=O)OC2 [MMF, mycophenolate mofetil] |  |  |  | 77.1 | 21.6 | 38.0 | 24.8 | 22.5 | 23.5 | 19.2 | 29.1 | 29.1 | 20 |  | 20.2
